From patent US20110224252A1, “NOVEL IMIDAZOLE DERIVATIVES” (SYNGENTA CROP PROTECTION, INC., priority 2007, published 2011)

Legend:
Assay type in all cases: in vivo
Alternaria solani = Alternaria solani / tomato / preventive (action against Alternaria on tomato); details: 96 h, spray, tomato plants cv. Roter Gnom, assessed 4 days after inoculation, read-out: inhibit fungal infestation
Description: (§1) Alternaria solani/Tomato/Preventive (Action Against Alternaria on Tomato) 4 weeks old tomato plants cv. Roter Gnom are treated with the formulated test compound in a spray chamber. Two days after application tomato plants are inoculated by spraying a spore suspension on the test plants. After an incubation period of 4 days at 22° C./18° C. and 95% r. h. in a greenhouse the disease incidence is assessed.

Uncinula necator = Uncinula necator / grape / preventive (action against powdery mildew on grape); details: Erysiphe necator, 168 h, spray, grape seedlings cv. Gutedel, assessed 7 days after inoculation, read-out: inhibit fungal infestation
Description: Uncinula necator/Grape/Preventive (Action Against Powdery Mildew on Grape) 5 weeks old grape seedlings cv. Gutedel are treated with the formulated test compound in a spray chamber. One day after application grape plants are inoculated by shaking plants infected with grape powdery mildew above the test plants. After an incubation period of 7 days at 24° C./22° C. and 70% r. h. under a light regime of 14/10 h (light/dark) the disease incidence is assessed.

Septoria tritici = Septoria tritici / wheat / preventive (action against Septoria leaf spot on wheat); details: Zymoseptoria tritici, spray, wheat plants cv. Riband, assessed 16-18 days after inoculation, read-out: inhibits fungal infestation
Description: Septoria tritici/Wheat/Preventive (Action Against Septoria Leaf Spot on Wheat) 2 weeks old wheat plants cv. Riband are treated with the formulated test compound in a spray chamber. One day after application wheat plants are inoculated by spraying a spore suspension (10^6 conidia/ml) on the test plants. After an incubation period of 1 day at 22° C./21° C. and 95% r. h. plants are kept at 22° C./21° C. and 70% r.h. in a greenhouse. The disease incidence is assessed 16-18 days after inoculation.

Botrytis cinerea = Botrytis cinerea / tomato / preventive (action against Botrytis on tomato); details: 72 h, spray, tomato plants cv. Roter Gnom, assessed 3 days after inoculation, read-out: inhibit fungal infestation
Description: as §1, with “Botrytis cinerea/Tomato/Preventive (Action” for “Alternaria solani/Tomato/Preventive (Action”, “Against Botrytis” for “Against Alternaria”, “of 3” for “of 4”, “at 20°” for “at 22° C./18°”

Puccinia recondita = Puccinia recondita / wheat / preventive (action against brown rust on wheat); details: 264 h, spray, wheat plants cv. Arina, assessed 11 days after inoculation, read-out: inhibit fungal infestation
Description: Puccinia recondita/Wheat/Preventive (Action Against Brown Rust on Wheat) 1 week old wheat plants cv. Arina are treated with the formulated test compound in a spray chamber. One day after application wheat plants are inoculated by spraying a spore suspension ([…] uredospores/ml) on the test plants. After an incubation period of 1 day at 20° C. and 95% r. h. plants are kept for 10 days 20° C./18° C. (day/night) and 60% r.h. in a greenhouse. The disease incidence is assessed 11 days after inoculation.

Measured: inhibition at 200 ppm

Cc1nc(Cl)n(-c2ncc(Cl)cc2Cl)c1-c1ccc(Cl)nc1 [I.s.210, 3,5-Dichloro-2-[2-chloro-5-(6-chloro-pyridin-3-yl)-4-methyl-imidazol-1-yl]-pyridine]
≥ 80%: Alternaria solani | Uncinula necator | Septoria tritici

Clc1cnc(-n2c(Cl)nc(Cl)c2-c2ccc(Br)cc2)c(Cl)c1 [I.s.034, 2-[5-(4-Bromo-phenyl)-2,4-dichloro-imidazol-1-yl]-3,5-dichloro-pyridine]
not listed: Puccinia recondita
≥ 80%: all other assays above

Cc1nc(Cl)n(-c2ncc(Cl)cc2Cl)c1-c1ccc(Br)cc1 [I.s.035, 2-[5-(4-Bromo-phenyl)-2-chloro-4-methyl-imidazol-1-yl]-3,5-dichloro-pyridine]
not listed: Botrytis cinerea
≥ 80%: all other assays above
